In patent US6720346B2, “Thiazole benzamide derivatives and pharmaceutical compositions for inhibiting cell proliferation” (Agouron Pharmaceuticals, Inc., priority 2001, dated 2004):
pIC50, pKi: −log10 of the molar value.

Experiments:
CDK2/cyclin A = target: T1, CDK2/cyclin A (Homo sapiens, UniProt P24941); test: Inhibition of CDK2/cyclin A retinoblastoma kinase activity (Ki; % inhibition); format: biochemical; settings: for pKi: apparent Ki, CDK2/cyclin A, Rb substrate
T1 construct: made in house; host or cells: CDK2: insect cells (baculovirus); cyclin A: E. coli
Summary of the method: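 Apparent Ki values came from fitting concentration-dependent activity data to competitive (or competitive tight-binding) models, and % inhibition from single 30 nM screens of library compounds. Activity was measured as ³²P/³³P incorporation from 25 μM ATP into an Rb substrate by 10 or 19 nM CDK2/delta cyclin A at 30 °C over 60–75 min, pH 7.4.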

human CDK4/cyclin D3 = target: T2, human CDK4/cyclin D3 (Homo sapiens, UniProt P11802); test: Inhibition of CDK4/cyclin D retinoblastoma kinase activity (Ki; % inhibition); format: biochemical; settings: for pKi: apparent Ki, CDK4/cyclin D3, Rb substrate
T2 construct: made in house; host or cells: insect cells co-infected with baculovirus vectors
T2 sequence (P11802 whole entry): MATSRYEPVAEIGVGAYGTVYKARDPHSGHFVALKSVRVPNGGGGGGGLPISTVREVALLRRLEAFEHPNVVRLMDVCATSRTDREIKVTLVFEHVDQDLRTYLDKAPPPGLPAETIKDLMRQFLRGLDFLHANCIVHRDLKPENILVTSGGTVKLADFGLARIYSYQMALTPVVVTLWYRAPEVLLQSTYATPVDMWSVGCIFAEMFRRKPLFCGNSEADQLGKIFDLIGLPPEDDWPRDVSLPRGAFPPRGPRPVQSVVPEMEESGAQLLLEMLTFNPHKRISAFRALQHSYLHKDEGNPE
T2 sequence (P30281 1-264 partner limits assumed): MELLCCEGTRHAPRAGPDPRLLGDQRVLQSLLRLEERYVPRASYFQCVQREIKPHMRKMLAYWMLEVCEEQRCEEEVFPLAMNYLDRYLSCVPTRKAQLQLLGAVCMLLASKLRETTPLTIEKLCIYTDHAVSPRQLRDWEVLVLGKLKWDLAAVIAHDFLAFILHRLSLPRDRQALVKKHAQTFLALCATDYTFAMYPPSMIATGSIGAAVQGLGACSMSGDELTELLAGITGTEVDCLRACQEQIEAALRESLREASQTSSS
Summary of the method: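 Radiometric filter-binding read-out: Rb residues 386-928 phosphorylated by 5 nM CDK4/cyclin D3(1-264) from baculovirus-infected insect cells, 25 μM ATP, HEPES pH 7.4, 30 °C. Run 20 min, or 60 min for tight-binding inhibitors. Screening at 30 nM theoretical compound; apparent Ki by competitive-inhibition fitting.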

HCT-116 cell line = test: Inhibition of cell growth, MTT tetrazolium salt assay; format: cell-based; settings: for pIC50: Homo sapiens, HCT-116, 120 h, MTT, three to five days
Summary of the method: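 Growth inhibition was read as MTT-formazan absorbance at 540 nm, after 4 h with 0.2 mg/mL MTT. Before that, HCT-116 cells had been exposed 3–5 days at 37 °C to compounds in 0.5% (v/v) DMSO, added 4 h after plating. 50% and 90% inhibitory concentrations were taken from semi-log concentration–inhibition plots versus vehicle controls.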

[1] = HCT-116 cells, 0.25 μM compound

Row | CDK2 % Inhibition at 0.03 μM (CDK2/cyclin A; at 0.03 μM) [%] | CDK4 % Inhibition at 0.03 μM (human CDK4/cyclin D3; at 0.03 μM) [%] | CDK2 % Inhibition at 0.03 μM (CDK2/cyclin A; 0.03 μM compound) [%] | CDK4 % Inhibition at 0.03 μM (human CDK4/cyclin D3; 0.03 μM compound) [%] | SMILES | HCT-116 % Inhibition at 0.25 μM (HCT-116 cell line; HCT-116, at 0.25 μM) [%] | HCT-116 % Inhibition at 0.1 μM (HCT-116 cell line; HCT-116 cells, 0.1 μM compound) [%] | HCT-116 % Inhibition at 0.25 μM (HCT-116 cell line; [1]) [%] | further results
1 | 8 | 7 | – | – | COc1ccccc1NC(=O)c1ccc(Nc2nc(N)c(C(=O)c3c(F)cccc3F)s2)cc1 [Example G23] | 63 | – | – | –
2 | – | – | −14 | 6 | C#CCN(C)C(=O)c1ccc(Nc2nc(N)c(C(=O)c3c(F)cccc3F)s2)cc1 [Example G282] | – | 1 | 56 | –
3 | – | – | −7 | 0 | CCCCN(CCCC)C(=O)c1ccc(Nc2nc(N)c(C(=O)c3c(F)cccc3F)s2)cc1 [Example G314] | – | 9 | 47 | –
4 | −24 | 11 | – | – | COCCCNC(=O)c1ccc(Nc2nc(N)c(C(=O)c3c(F)cccc3F)s2)cc1 [Example G98] | 60 | – | – | HCT-116 % Inhibition at 0.1 μM (HCT-116 cell line; HCT-116, at 0.1 μM): 22%
5 | – | – | – | – | C[C@@H]1CN(CCNC(=O)c2ccc(Nc3nc(N)c(C(=O)c4c(F)cccc4F)s3)cc2)C[C@H](C)N1 [Example A57] | – | – | – | pKi (CDK2/cyclin A): 7.27; pKi (human CDK4/cyclin D3): 8.00; pIC50 (HCT-116 cell line): 5.42
6 | 5 | 5 | – | – | Nc1nc(Nc2ccc(C(=O)Nc3ccc(-c4csnn4)cc3)cc2)sc1C(=O)c1c(F)cccc1F [Example G30] | 82 | – | – | –
7 | – | – | 11 | 12 | CCOc1ccc(NC(=O)c2ccc(Nc3nc(N)c(C(=O)c4c(F)cccc4F)s3)cc2)cc1 [Example G313] | – | 10 | 57 | –
8 | – | – | −5 | 14 | COc1ccc(OC)c(CCNC(=O)c2ccc(Nc3nc(N)c(C(=O)c4c(F)cccc4F)s3)cc2)c1 [Example G319] | – | 17 | 54 | –
9 | – | – | – | – | Nc1nc(Nc2ccc(C(=O)NC3Cc4ccccc4C3)cc2)sc1C(=O)c1c(F)cccc1F [Example A22, 4-[4-Amino-5-(2,6-difluoro-benzoyl)-thiazol-2-ylamino]-N-indan-2-yl-benzamide] | – | – | – | pKi (CDK2/cyclin A): 8.22; pKi (human CDK4/cyclin D3): 8.30; pIC50 (HCT-116 cell line): 6.77
10 | – | – | 36 | 34 | Cc1ccc([C@H](C)NC(=O)c2ccc(Nc3nc(N)c(C(=O)c4c(F)cccc4F)s3)cc2)cc1 [Example G245] | – | 18 | 55 | –
11 | – | – | 8 | 26 | Nc1nc(Nc2ccc(C(=O)NCc3ccncc3)cc2)sc1C(=O)c1c(F)cccc1F [Example G277] | – | 11 | 56 | –
12 | 11 | 21 | – | – | CC(CNC(=O)c1ccc(Nc2nc(N)c(C(=O)c3c(F)cccc3F)s2)cc1)c1ccccc1 (stereo not shown) [Example G118] | 48 | – | – | HCT-116 % Inhibition at 0.1 μM (HCT-116 cell line; HCT-116, at 0.1 μM): 5%
13 | 19 | 17 | – | – | CN(CCc1ccncc1)C(=O)c1ccc(Nc2nc(N)c(C(=O)c3c(F)cccc3F)s2)cc1 [Example G58] | 53 | – | – | –
14 | – | – | 29 | 34 | Nc1nc(Nc2ccc(C(=O)NCc3ccccc3F)cc2)sc1C(=O)c1c(F)cccc1F [Example G221] | – | 20 | 74 | –
15 | 8 | 9 | – | – | COc1ccc(NC(=O)c2ccc(Nc3nc(N)c(C(=O)c4c(F)cccc4F)s3)cc2)cc1 [Example G54] | 86 | – | – | –
16 | – | – | – | – | CN1C[C@H](O)C[C@H]1CNC(=O)c1ccc(Nc2nc(N)c(C(=O)c3c(F)cccc3F)s2)cc1 [Example A54, 4-{4-Amino-5-(2,6-difluoro-benzoyl)-thiazol-2-ylamino]-N-(4R-hydroxy-1-methyl-pyrrolidin-2S-yl-methyl)-benzamide] | – | – | – | pKi (CDK2/cyclin A): 7.28; pKi (human CDK4/cyclin D3): 8.05; pIC50 (HCT-116 cell line): 6.22
17 | 3 | 9 | – | – | CC(C)CC(C)NC(=O)c1ccc(Nc2nc(N)c(C(=O)c3c(F)cccc3F)s2)cc1 (stereo not shown) [Example G125] | 59 | – | – | HCT-116 % Inhibition at 0.1 μM (HCT-116 cell line; HCT-116, at 0.1 μM): 13%

Row | CDK2 % Inhibition at 0.03 μM (CDK2/cyclin A; at 0.03 μM) [%] | CDK4 % Inhibition at 0.03 μM (human CDK4/cyclin D3; at 0.03 μM) [%] | CDK2 % Inhibition at 0.03 μM (CDK2/cyclin A; 0.03 μM compound) [%] | CDK4 % Inhibition at 0.03 μM (human CDK4/cyclin D3; 0.03 μM compound) [%] | SMILES | HCT-116 % Inhibition at 0.25 μM (HCT-116 cell line; HCT-116, at 0.25 μM) [%] | HCT-116 % Inhibition at 0.1 μM (HCT-116 cell line; HCT-116 cells, 0.1 μM compound) [%] | HCT-116 % Inhibition at 0.25 μM (HCT-116 cell line; [1]) [%] | further results
18 | – | – | – | – | CC(C)(CNC(=O)c1ccc(Nc2nc(N)c(C(=O)c3c(F)cccc3F)s2)cc1)N1CCCCC1 [Example A52, 4-[4-Amino-5-(2,6-difluoro-benzoyl)-thiazol-2-ylamino]-N-(2-methyl-2-piperidin-1-yl-propyl)-benzamide] | – | – | – | pKi (CDK2/cyclin A): 6.77; pKi (human CDK4/cyclin D3): 8.05; pIC50 (HCT-116 cell line): 6.89
19 | – | – | −33 | −2 | CC1CC(C)CN(C(=O)c2ccc(Nc3nc(N)c(C(=O)c4c(F)cccc4F)s3)cc2)C1 (stereo not shown) [Example G273] | – | 17 | 45 | –
20 | – | – | – | – | C[C@@H]1CCC[C@H](C)N1CCNC(=O)c1ccc(Nc2nc(N)c(C(=O)c3c(F)cccc3F)s2)cc1 [Example A51] | – | – | – | pKi (CDK2/cyclin A): 6.96; pKi (human CDK4/cyclin D3): 8.15; pIC50 (HCT-116 cell line): 7.05
21 | – | – | – | – | CN1CCC[C@H]1CNC(=O)c1ccc(Nc2nc(N)c(C(=O)c3c(F)cccc3Cl)s2)cc1 [Example A71, 4-[4-Amino-5-(2-chloro-6-fluoro-benzoyl)-thiazol-2-ylamino]-N-(1-methyl-pyrrolidin-2S-ylmethyl)-benzamide] | – | – | – | pKi (CDK2/cyclin A): 8.25; pKi (human CDK4/cyclin D3): 7.09; pIC50 (HCT-116 cell line): 7.47
22 | 6 | 22 | – | – | CC(CO)NC(=O)c1ccc(Nc2nc(N)c(C(=O)c3c(F)cccc3F)s2)cc1 (stereo not shown) [Example G109] | – | – | – | HCT-116 % Inhibition at 0.1 μM (HCT-116 cell line; HCT-116, at 0.1 μM, 0.1 µM): 0%; HCT-116 % Inhibition at 0.25 μM (HCT-116 cell line; HCT-116, at 0.25 μM, 0.25 µM): 54%
23 | – | – | 17 | 29 | Nc1nc(Nc2ccc(C(=O)NCc3ccc(F)c(C(F)(F)F)c3)cc2)sc1C(=O)c1c(F)cccc1F [Example G302] | – | 17 | 63 | –
24 | −10 | 5 | – | – | CC(C)NC(=O)c1ccc(Nc2nc(N)c(C(=O)c3c(F)cccc3F)s2)cc1 [Example G96] | 56 | – | – | HCT-116 % Inhibition at 0.1 μM (HCT-116 cell line; HCT-116, at 0.1 μM): 20%
25 | −30 | 2 | – | – | CCCCC(CC)NC(=O)c1ccc(Nc2nc(N)c(C(=O)c3c(F)cccc3F)s2)cc1 (stereo not shown) [Example G90] | 54 | – | – | HCT-116 % Inhibition at 0.1 μM (HCT-116 cell line; HCT-116, at 0.1 μM): 24%
26 | – | – | 10 | 11 | CCN(CCc1ccccn1)C(=O)c1ccc(Nc2nc(N)c(C(=O)c3c(F)cccc3F)s2)cc1 [Example G251] | – | 16 | 48 | –
27 | – | – | −2 | 11 | N#CCCN(Cc1cccnc1)C(=O)c1ccc(Nc2nc(N)c(C(=O)c3c(F)cccc3F)s2)cc1 [Example G316] | – | 1 | 56 | –
28 | – | – | 30 | 29 | Cc1cccc(CNC(=O)c2ccc(Nc3nc(N)c(C(=O)c4c(F)cccc4F)s3)cc2)c1C [Example G294] | – | 15 | 74 | –
29 | – | – | – | – | Cc1ccsc1C(=O)c1sc(Nc2ccc(C(=O)NC[C@@H]3CCCN3C)cc2)nc1N [Example A70, 4-{4-Amino-5-[1-(3-methyl-thiophen-2-yl)-methanoyl]-thiazol-2-ylamino}-N-(1-methyl-pyrrolidin-2S-ylmethyl)-benzamide] | – | – | – | pKi (CDK2/cyclin A): 8.21; pKi (human CDK4/cyclin D3): 6.89; pIC50 (HCT-116 cell line): 7.64
30 | – | – | 4 | 0 | Cc1ccc(NC(=O)c2ccc(Nc3nc(N)c(C(=O)c4c(F)cccc4F)s3)cc2)nc1 [Example G352] | – | 24 | 64 | –
31 | 27 | 24 | – | – | Nc1nc(Nc2ccc(C(=O)Nc3ccc4c(c3)S(=O)(=O)C=C4)cc2)sc1C(=O)c1c(F)cccc1F [Example G115] | 88 | – | – | HCT-116 % Inhibition at 0.1 μM (HCT-116 cell line; HCT-116, at 0.1 μM): 30%
32 | −7 | 1 | – | – | CCOc1cccc(NC(=O)c2ccc(Nc3nc(N)c(C(=O)c4c(F)cccc4F)s3)cc2)c1 [Example G16] | 50 | – | – | –
33 | – | – | −16 | −5 | CC(C)C[C@@H](CO)NC(=O)c1ccc(Nc2nc(N)c(C(=O)c3c(F)cccc3F)s2)cc1 [Example G333] | – | 4 | 51 | –
34 | – | – | 11 | 7 | Nc1nc(Nc2ccc(C(=O)Nc3cccc(C(F)(F)F)c3)cc2)sc1C(=O)c1c(F)cccc1F [Example G371] | – | 27 | 53 | –
